Source: ChEMBL document CHEMBL4368940, “Development of a novel NURR1/NOT agonist from hit to lead and candidate for the potential treatment of Parkinson's disease” (Bioorg Med Chem Lett, 2019)
pEC50, pIC50: −log10 of the molar value. The source made the active and inactive calls. No cut-off for these calls is given here.

What was measured:
[1] = Ratio of AUC in C57BL/6 mouse brain to plasma at 3 mg/kg, iv administered as single dose; assay type: ADME, organism-based; conditions: read-out: Ratio AUC
[2] = biological target: Nuclear receptor subfamily 4 group A member 2 (Homo sapiens, UniProt P43354); assay: Agonist activity at full-length Gal4-fused NOT (unknown origin) expressed in CHO cells by luciferase reporter gene assay; assay type: cell-based; conditions: read-out: EC50
Sequence of Nuclear receptor subfamily 4 group A member 2 (P43354 whole entry, the tested form may be a part): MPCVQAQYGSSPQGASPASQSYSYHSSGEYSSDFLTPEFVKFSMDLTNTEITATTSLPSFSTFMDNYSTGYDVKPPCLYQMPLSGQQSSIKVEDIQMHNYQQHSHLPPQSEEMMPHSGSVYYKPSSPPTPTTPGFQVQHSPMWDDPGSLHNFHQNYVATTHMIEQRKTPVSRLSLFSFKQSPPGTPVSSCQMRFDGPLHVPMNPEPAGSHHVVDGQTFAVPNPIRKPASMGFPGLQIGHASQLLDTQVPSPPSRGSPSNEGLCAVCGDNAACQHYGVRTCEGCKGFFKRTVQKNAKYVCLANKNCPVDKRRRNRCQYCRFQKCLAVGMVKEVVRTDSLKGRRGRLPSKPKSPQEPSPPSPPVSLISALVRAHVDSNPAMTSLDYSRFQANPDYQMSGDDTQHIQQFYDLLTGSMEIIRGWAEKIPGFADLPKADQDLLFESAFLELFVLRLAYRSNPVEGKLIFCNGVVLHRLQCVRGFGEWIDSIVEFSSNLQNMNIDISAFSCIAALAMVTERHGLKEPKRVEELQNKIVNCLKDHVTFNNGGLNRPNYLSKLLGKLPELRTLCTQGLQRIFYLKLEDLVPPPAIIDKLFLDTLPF

[3] = biological target: Nuclear receptor subfamily 4 group A member 2 (Rattus norvegicus) (UniProt Q07917); assay: Agonist activity at Nurr1 in rat mesencephalic primary neurons assessed as increase in tyrosine hydroxylase expression at 3 uM
Sequence of Nuclear receptor subfamily 4 group A member 2 (Rattus norvegicus) (Q07917 whole entry): as the sequence (P43354 whole entry, the tested form may be a part) above, with T131S, P182R, E354D counted along it

[4] = biological target: Nuclear receptor subfamily 4 group A member 2 (Mus musculus) (UniProt Q06219); assay: Agonist activity at Nurr1 in mouse MG7 cells assessed as inhibition of LPS-induced IL1beta secretion at 3 uM; assay type: cell-based
Sequence of Nuclear receptor subfamily 4 group A member 2 (Mus musculus) (Q06219 whole entry): as the sequence (P43354 whole entry, the tested form may be a part) above, with T131S, G134S, E354D counted along it

[5] = Clearance in human hepatocytes assessed per million cells; assay type: ADME, cell-based, Hepatocyte
[6] = biological target: Voltage-gated inwardly rectifying potassium channel KCNH2 (Homo sapiens, UniProt Q12809); assay: Inhibition of human ERG
Sequence of Voltage-gated inwardly rectifying potassium channel KCNH2 (Q12809 whole entry): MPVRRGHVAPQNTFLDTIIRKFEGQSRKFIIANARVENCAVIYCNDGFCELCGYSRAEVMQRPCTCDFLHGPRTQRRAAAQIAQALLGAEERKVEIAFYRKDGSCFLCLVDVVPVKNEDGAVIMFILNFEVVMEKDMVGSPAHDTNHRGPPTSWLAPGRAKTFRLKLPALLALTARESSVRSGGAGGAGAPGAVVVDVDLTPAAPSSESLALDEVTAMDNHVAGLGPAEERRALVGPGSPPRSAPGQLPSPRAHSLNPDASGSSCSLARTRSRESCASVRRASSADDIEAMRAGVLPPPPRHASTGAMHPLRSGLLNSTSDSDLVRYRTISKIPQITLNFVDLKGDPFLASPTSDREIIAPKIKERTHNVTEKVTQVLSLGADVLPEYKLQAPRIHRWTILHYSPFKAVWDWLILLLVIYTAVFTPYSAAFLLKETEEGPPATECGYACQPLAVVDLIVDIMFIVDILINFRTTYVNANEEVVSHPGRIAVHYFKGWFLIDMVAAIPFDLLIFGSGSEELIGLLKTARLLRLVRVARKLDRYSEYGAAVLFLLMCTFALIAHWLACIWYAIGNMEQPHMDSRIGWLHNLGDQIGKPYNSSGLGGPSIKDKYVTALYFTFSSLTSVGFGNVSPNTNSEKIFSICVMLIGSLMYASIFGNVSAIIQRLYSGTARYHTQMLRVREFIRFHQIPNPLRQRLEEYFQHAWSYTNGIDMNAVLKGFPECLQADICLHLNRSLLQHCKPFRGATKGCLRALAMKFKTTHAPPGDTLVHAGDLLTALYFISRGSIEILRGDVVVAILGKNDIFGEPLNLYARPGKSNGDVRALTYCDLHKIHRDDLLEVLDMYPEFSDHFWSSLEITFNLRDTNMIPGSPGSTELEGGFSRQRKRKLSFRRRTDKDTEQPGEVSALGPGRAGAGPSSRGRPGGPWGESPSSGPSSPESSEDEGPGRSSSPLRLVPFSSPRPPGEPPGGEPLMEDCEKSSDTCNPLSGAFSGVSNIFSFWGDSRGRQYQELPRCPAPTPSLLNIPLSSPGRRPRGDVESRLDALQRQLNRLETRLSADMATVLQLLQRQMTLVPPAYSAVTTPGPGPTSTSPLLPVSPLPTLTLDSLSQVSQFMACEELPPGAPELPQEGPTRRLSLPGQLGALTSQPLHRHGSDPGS

[7] = Cmax in C57BL/6 mouse plasma at 3 mg/kg, iv administered as single dose; assay type: ADME, organism-based; set-up: dose 3 mg/kg, route intravenous
[8] = AUC in C57BL/6 mouse plasma at 3 mg/kg, iv administered as single dose; assay type: ADME, organism-based
[9] = Apparent half-life of the terminal disposition phase in C57BL/6 mouse plasma at 3 mg/kg, iv administered as single dose; assay type: ADME, organism-based; conditions: in vivo
[10] = Cmax in C57BL/6 mouse brain at 3 mg/kg, iv administered as single dose; assay type: ADME, organism-based; set-up: dose 3 mg/kg, route intravenous
[11] = AUC in C57BL/6 mouse brain at 3 mg/kg, iv administered as single dose; assay type: ADME, organism-based
[12] = Apparent half-life of the terminal disposition phase in C57BL/6 mouse brain at 3 mg/kg, iv administered as single dose; assay type: ADME, organism-based; conditions: read-out: t1/2 lambda z (converted)
[13] = Cmax in C57BL/6 mouse plasma at 10 mg/kg, po administered as single dose; assay type: ADME, organism-based; set-up: dose 10 mg/kg, route oral
[14] = Tmax in C57BL/6 mouse plasma at 10 mg/kg, po administered as single dose; assay type: ADME, organism-based
[15] = AUC in C57BL/6 mouse plasma at 10 mg/kg, po administered as single dose; assay type: ADME, organism-based
[16] = Apparent half-life of the terminal disposition phase in C57BL/6 mouse plasma at 10 mg/kg, po administered as single dose; assay type: ADME, organism-based; conditions: read-out: t1/2 lambda z (converted)
[17] = Ratio of AUC in C57BL/6 mouse brain to plasma at 10 mg/kg, po administered as single dose; assay type: ADME, organism-based; conditions: read-out: Ratio AUC
[18] = Cmax in C57BL/6 mouse brain at 10 mg/kg, po administered as single dose; assay type: ADME, organism-based; set-up: dose 10 mg/kg, route oral
[19] = AUC in C57BL/6 mouse brain at 10 mg/kg, po administered as single dose; assay type: ADME, organism-based
[20] = Apparent half-life of the terminal disposition phase in C57BL/6 mouse brain at 10 mg/kg, po administered as single dose; assay type: ADME, organism-based; conditions: read-out: t1/2 lambda z (converted)
Cavia porcellus = assay: Hemodynamic activity iv dosed anaesthetized guinea pig administered as single dose measured after 5 mins; assay type: ADME, organism-based; conditions: in vivo
[21] = Cardiotoxicity in iv dosed anaesthetized guinea pig assessed as electrocardiographic changes administered as single dose measured after 5 mins; assay type: toxicity, organism-based, Cavia porcellus; conditions: in vivo
[22] = Cardiotoxicity in iv dosed anaesthetized guinea pig assessed as electrophysiological changes administered as single dose measured after 5 mins; assay type: toxicity, organism-based, Cavia porcellus; conditions: in vivo
Canis familiaris = assay: Hemodynamic activity iv dosed anaesthetized dog administered as single dose measured after 5 mins; assay type: ADME, organism-based, Canis lupus familiaris; conditions: in vivo
[23] = Cardiotoxicity in iv dosed anaesthetized dog assessed as electrocardiographic changes administered as single dose measured after 5 mins; assay type: toxicity, organism-based, Canis lupus familiaris; conditions: in vivo
[24] = Cardiotoxicity in iv dosed anaesthetized dog assessed as electrophysiological changes administered as single dose measured after 5 mins; assay type: toxicity, organism-based, Canis lupus familiaris; conditions: in vivo
[25] = Drug level in anaesthetized guinea pig heart administered as single iv dose; assay type: ADME, organism-based, Cavia porcellus; conditions: in vivo, read-out: Drug uptake
[26] = Drug level in anaesthetized dog heart administered as single iv dose; assay type: ADME, organism-based, Canis lupus familiaris; conditions: in vivo, read-out: Drug uptake
Rattus norvegicus [27] = assay: Antiinflammatory activity in Sprague-Dawley rat assessed as inhibition of LPS-induced TNFalpha release at 30 mg/kg; assay type: functional
Rattus norvegicus [28] = species: Rattus norvegicus; assay: Neuroprotective activity in poly(I:C)-induced Sprague-Dawley rat Parkinson's disease lesion model assessed as reduction in brain gliosis; assay type: functional, organism-based
Rattus norvegicus [29] = species: Rattus norvegicus; assay: Neuroprotective activity in poly(I:C)-induced Sprague-Dawley rat Parkinson's disease lesion model assessed as reduction in IL6 level; assay type: functional, organism-based
[30] = biological target: Nuclear receptor subfamily 4 group A member 2 (Mus musculus) (UniProt Q06219); assay: Agonist activity at Nurr1 in co-culture of mouse primary neurons and microglia assessed as inhibition of LPS-induced neurotoxicity by measuring neuroprotection at 3 uM; set-up: scale not given: the % may be the effect or the level left

Kp [1]: 0.7
pEC50 [2]: 6.66
Activity [3]: 188 to 284%
inhibition [4]: 28 to 46%
CLH [5]: 0.051 mL/h
Cmax [7]: 4870 ng/mL
AUC [8]: 20600 ng·h/mL
t1/2 lambda z [9]: 98.4 h
Cmax [10]: 2630 ng/mL
AUC [11]: 15000 ng·h/mL
half-life [12]: 91.2 h
Cmax [13]: 4170 ng/mL
Tmax [14]: 24 h
AUC [15]: 70300 ng·h/mL
half-life [16]: 194 h
Kp [17]: 0.8
Cmax [18]: 3080 ng/mL
AUC [19]: 55600 ng·h/mL
half-life [20]: 197 h
concentration [25]: ≤ 17 µM
concentration [26]: 40 µM
Compound: CC(C)(O)c1cccc(-c2ccc3nc(-c4ccc(Cl)cc4)cn3c2)c1
pIC50 [6]: 5.82
Activity (Cavia porcellus): Non-Toxic
Activity [21]: Non-Toxic
Activity [22]: Non-Toxic
Activity (Canis familiaris): Non-Toxic
Activity [23]: Non-Toxic
Activity [24]: Non-Toxic
inhibition in vivo at 30 mg/kg (Rattus norvegicus [27]): 47%
Activity (Rattus norvegicus [28]): Active
Activity (Rattus norvegicus [29]): Active
Activity [30]: 86 to 99%
